What was measured:
LASV-p = test: organism not typed; assay type: cell-based, Lassa (LASV); conditions: Vero, 24 h, read-out: LASV-p EC50 (nM)
MACV-p = test: organism not typed; assay type: cell-based, Machupo (MACV); conditions: Vero, 24 h, read-out: MACV-p EC50 (nM)
JUNV-p = test: organism not typed; assay type: cell-based, Junin (JUNV); conditions: Vero, 24 h, read-out: JUNV-p EC50 (nM)
TCRV-p = test: organism not typed; assay type: cell-based; conditions: Vero, 24 h, read-out: TCRV-p EC50 (nM)
VSV-p = test: microbe, parasite or virus in culture; assay type: cell-based; conditions: Vesicular stomatitis virus, Vero, 24 h, read-out: VSV-p EC50 (nM)
in vitro = conditions: African green monkey
GTOV-p = test: organism not typed; assay type: cell-based, Guanarito (GTOV); conditions: Vero, 24 h, read-out: GTOV-p EC50 (nM)
hERG channel = hERG channel (Homo sapiens, UniProt Q12809); conditions: pH 7.4
Sequence of hERG channel (Q12809 whole entry): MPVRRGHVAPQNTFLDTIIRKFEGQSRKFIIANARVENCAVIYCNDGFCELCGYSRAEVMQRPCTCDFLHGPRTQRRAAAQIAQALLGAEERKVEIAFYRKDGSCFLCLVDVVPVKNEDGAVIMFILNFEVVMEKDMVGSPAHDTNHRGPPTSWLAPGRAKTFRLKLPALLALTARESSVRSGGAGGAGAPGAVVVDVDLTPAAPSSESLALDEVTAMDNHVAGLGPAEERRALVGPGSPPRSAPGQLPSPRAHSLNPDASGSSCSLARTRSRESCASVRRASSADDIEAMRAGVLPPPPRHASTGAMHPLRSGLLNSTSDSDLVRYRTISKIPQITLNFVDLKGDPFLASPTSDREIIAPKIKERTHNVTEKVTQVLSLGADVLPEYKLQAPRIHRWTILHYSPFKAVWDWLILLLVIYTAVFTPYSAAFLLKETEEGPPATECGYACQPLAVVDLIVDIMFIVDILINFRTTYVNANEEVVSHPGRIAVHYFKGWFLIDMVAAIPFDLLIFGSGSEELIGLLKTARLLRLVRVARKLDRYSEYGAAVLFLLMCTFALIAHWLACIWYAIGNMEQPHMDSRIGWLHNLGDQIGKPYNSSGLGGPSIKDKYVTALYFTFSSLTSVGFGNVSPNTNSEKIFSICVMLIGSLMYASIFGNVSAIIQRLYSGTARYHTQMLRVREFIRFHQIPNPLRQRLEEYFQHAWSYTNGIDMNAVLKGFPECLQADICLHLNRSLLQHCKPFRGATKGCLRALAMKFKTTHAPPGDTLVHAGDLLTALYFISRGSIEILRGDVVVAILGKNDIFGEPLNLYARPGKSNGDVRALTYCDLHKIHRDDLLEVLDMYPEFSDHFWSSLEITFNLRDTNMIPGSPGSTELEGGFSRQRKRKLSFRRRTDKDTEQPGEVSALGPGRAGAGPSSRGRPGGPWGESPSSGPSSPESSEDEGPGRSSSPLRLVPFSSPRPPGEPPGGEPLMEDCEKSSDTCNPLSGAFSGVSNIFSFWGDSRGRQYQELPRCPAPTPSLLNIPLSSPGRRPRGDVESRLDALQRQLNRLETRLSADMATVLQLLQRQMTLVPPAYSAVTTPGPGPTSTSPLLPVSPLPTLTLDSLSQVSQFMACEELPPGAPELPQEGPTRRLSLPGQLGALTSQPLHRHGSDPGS

[1] = 1 h, pH 7.4
[2] = guinea pig, 1 h, pH 7.4
[3] = 1 h, pH 7.4; remark: listed apart in the source

SMILES | EC50 (LASV-p) [nM] | EC50 (MACV-p) [nM] | EC50 (JUNV-p) [nM] | EC50 (TCRV-p) [nM] | EC50 (VSV-p) [nM] | CC50 (in vitro) [nM] | EC50 (GTOV-p) [nM] | hERG % Inhibition (hERG channel) [%] | Percent parent compound remaining at 60 minutes in liver microsomes, Human [1] [%] | Percent parent compound remaining at 60 minutes in liver microsomes, Guinea [2] [%] | Percent parent compound remaining at 60 minutes in liver microsomes, Monkey [3] [%]
COc1ccc(-n2cnc3ccc(-c4ccc(N(C)C)cc4)cc32)cc1 [Example A7, 4-[1-(4-methoxyphenyl)-1H-1,3-benzodiazol-6-yl]-N,N-dimethylaniline] | 8.9 | 17 | 1.8 | > 25 | 980 | 3960 | – | – | – | – | –
COc1ccc(-n2cnc3ccc(-c4ccc(C(C)(C)O)cc4)cc32)cc1 [Example A8, 2-{4-[1-(4-methoxyphenyl)-1H-1,3-benzodiazol-6-yl]phenyl}propan-2-ol] | 6.4 | 22.3 | 3.98 | 21.7 | > 1000 | 9540 | – | – | – | – | –
COc1ccc(-n2cnc3ccc(-c4ccc5[nH]ccc5c4)cc32)cc1 [Example A12, 6-(1H-indol-5-yl)-1-(4-methoxyphenyl)-1H-1,3-benzodiazole] | 0.81 | > 25 | 19.3 | 21.4 | 800 | 200 | – | – | – | – | –
COc1ccc(-n2cnc3ccc(-c4ccc(N5CCOCC5)cc4)cc32)cc1 [Example A16, 1-(4-methoxyphenyl)-6-[4-(morpholin-4-yl)phenyl]-1H-1,3-benzodiazole] | 17.2 | > 25 | 15.3 | > 25 | > 1000 | > 100000 | – | – | – | – | –
CC(C)Oc1ccc(-n2cnc3ccc(-c4ccc(N(C)C)cc4)cc32)cc1 [Example A18, N,N-dimethyl-4-{1-[4-(propan-2-yloxy)phenyl]-1H-1,3-benzodiazol-6-yl}aniline] | 1.08 | 2.27 | 1.55 | 12.5 | > 1000 | 14000 | 0.07 | – | – | – | –
Cc1cc2ncn(-c3ccc(OC(C)C)cc3)c2cc1-c1ccc(OC(C)C)cc1 [Example A30, 5-methyl-1,6-bis[4-(propan-2-yloxy)phenyl]-1H-1,3-benzodiazole] | 0.53 | 0.21 | 0.03 | 0.07 | 5310 | 3670 | 0.21 | <10 | – | – | –
COc1cc2ncn(-c3ccc(OC(C)C)cc3)c2cc1-c1ccc(OC(C)C)cc1 [Example A31, 5-methoxy-1,6-bis[4-(propan-2-yloxy)phenyl]-1H-1,3-benzodiazole] | 2.6 | 0.9 | 0.18 | 0.7 | – | 3790 | – | <10 | 93 | 100 | 40
CC(C)Oc1ccc(-n2cnc3ccc(-c4ccc(C(C)(C)O)cc4)nc32)cc1 [Example B1, 2-(4-{3-[4-(propan-2-yloxy)phenyl]-3H-imidazo[4,5-b]pyridin-5-yl}phenyl)propan-2-ol] | 1.61 | 7.09 | 4.95 | 28 | > 1000 | 12200 | 0.88 | – | – | – | –
CC(C)Oc1ccc(-c2ccc3ncn(-c4ccc(OC(C)C)cc4)c3n2)cc1 [Example B2, 3,5-bis[4-(propan-2-yloxy)phenyl]-3H-imidazo[4,5-b]pyridine] | – | – | – | – | – | – | – | <10 | – | – | –
CC(C)Oc1ccc(-c2ccc3nnn(-c4ccc(OC(C)C)cc4)c3c2)cc1 [Example B12, 1,6-bis[4-(propan-2-yloxy)phenyl]-1H-1,2,3-benzotriazole] | – | – | – | – | – | – | – | 17 | – | – | –
CC(C)Oc1ccc(-n2nnc3ccc(-c4ccc5[nH]ccc5c4)cc32)cc1 [Example B13, 6-(1H-indol-5-yl)-1-[4-(propan-2-yloxy)phenyl]-1H-1,2,3-benzotriazole] | 1.53 | 5.58 | 1.8 | 20.4 | 5360 | 6620 | 1.24 | – | – | – | –
Cc1cc2nnn(-c3ccc(OC(C)C)cc3)c2cc1-c1ccc(OC(C)C)cc1 [Example B15, 5-methyl-1,6-bis[4-(propan-2-yloxy)phenyl]-1H-1,2,3-benzotriazole] | 0.95 | 0.25 | 0.02 | 0.37 | > 10000 | > 100000 | 0.18 | <10 | – | – | –
CC(C)Oc1ccc(-c2cnc3ccc(-c4ccc(C5(O)CCC5)cc4)cn23)cc1 [Example C9, 1-(4-{3-[4-(propan-2-yloxy)phenyl]imidazo[1,2-a]pyridin-6-yl}phenyl)cyclobutan-1-ol] | 1.15 | 0.71 | 0.45 | 1.7 | 5810 | 3970 | 0.27 | – | – | – | –
CC(C)Oc1ccc(-c2cnc3ccc(-c4ccc5cc[nH]c5c4)cn23)cc1 [Example C11, 6-{3-[4-(propan-2-yloxy)phenyl]imidazo[1,2-a]pyridin-6-yl}-1H-indole] | 2.83 | 10 | 3.21 | 18.4 | 3090 | 25200 | 0.86 | – | – | – | –
CC(C)Oc1ccc(-c2cnc3ccc(-c4ccc(OC(C)C)c(F)c4)cn23)cc1 [Example C24, 6-[3-fluoro-4-(propan-2-yloxy)phenyl]-3-[4-(propan-2-yloxy)phenyl]imidazo[1,2-a]pyridine] | 4.58 | 0.875 | 0.416 | 3.91 | 9810 | 4180 | 0.15 | – | – | – | –
CC(C)Oc1ccc(-c2cnc3ccc(-c4ccc(C5(O)CC5)cc4)cn23)cc1 [Example C27, 1-(4-{3-[4-(propan-2-yloxy)phenyl]imidazo[1,2-a]pyridin-6-yl}phenyl)cyclopropan-1-ol] | 0.66 | 0.68 | 0.51 | 0.58 | > 10000 | 5280 | 0.24 | – | – | – | –
CC(C)Oc1ccc(-c2ccc3ncc(-c4ccc(C5CC5)cc4)n3c2)cc1 [Example C30, 3-(4-cyclopropylphenyl)-6-[4-(propan-2-yloxy)phenyl]imidazo[1,2-a]pyridine] | 1.02 | 1.08 | 0.82 | 3.83 | 6960 | 3980 | 0.05 | – | – | – | –
CC(C)Oc1ccc(-c2ccc3ncc(-c4ccc(OCC5CC5)cc4)n3c2)cc1 [Example C33, 3-[4-(cyclopropylmethoxy)phenyl]-6-[4-(propan-2-yloxy)phenyl]imidazo[1,2a]pyridine] | 1.3 | 5.31 | 2.3 | 6.57 | 4770 | 4770 | 0.91 | – | – | – | –
CC(C)Oc1ccc(-c2ccc3ncc(-c4ccc(OC(F)F)cc4)n3c2)cc1 [Example C40, 3-[4-(difluoromethoxy)phenyl]-6-[4-(propan-2-yloxy)phenyl]imidazo[1,2a]pyridine] | 3.83 | 5.85 | 0.97 | 22.6 | 6170 | 4110 | 1.35 | – | – | – | –
c1cc(-c2ccc3ncc(-c4ccc(OC5CC5)cc4)n3c2)ccc1OC1CC1 [Example C46, 3,6-bis(4-cyclopropoxyphenyl)imidazo[1,2-a]pyridine] | 7.23 | 8.47 | 4.42 | 22.5 | 4550 | 4610 | 1.26 | – | – | – | –
OC1(c2ccc(-c3ccc4ncc(-c5ccc(C6(O)CCC6)cc5)n4c3)cc2)CCC1 [Example C47, 1-(4-{3-[4-(1-hydroxycyclobutyl)phenyl]imidazo[1,2-a]pyridin-6-yl}phenyl)cyclobutan-1-ol] | 1.8 | 0.5 | 0.55 | 1.17 | 4340 | 7860 | 0.44 | – | – | – | –
CC(C)Oc1ccc(-c2cnc3ncc(-c4ccc5[nH]ccc5c4)n3c2)cc1 [Example D16, 5-{6-[4-(propan-2-yloxy)phenyl]imidazo[1,2-a]pyrimidin-3-yl}-1H-indole] | 5.37 | 19.1 | 1.05 | 19.9 | – | 7530 | 3.52 | – | – | – | –
